{"source": "patent US20150218563A1", "about": "“COMPOSITIONS AND METHODS FOR MODULATION OF RORGAMMAT FUNCTIONS” (priority 2004, published 2015)", "tested_on": "mRORγt", "experiment": "shRNA inhibition of mRORγt expression in AKR1 cells, monitored by Western blot", "type": "cell-based, mouse", "conditions": "AKR1 cells infected with retrovirus encoding the shRNA vs empty retroviral vector, HMG-1 loading control", "excerpt": "FIG. 42. Delivery of siRNA Hairpins by a Retroviral vector. […] After the AKR1 cells were infected with these vectors, mRORγt expression was monitored by Western blot. HMG-1 was used as an internal loading control. […] The effect lasted for at least two to three weeks, as shown in the lower panel.\nTwo shRNA molecules were generated using the DNA sequence of SEQ ID NO: 3 (mouse RORγt). In particular, the nucleotides from position 358-378 of SEQ ID NO: 3 and from position 1269-1289 of SEQ ID NO: 3 (mouse RORγt) were used to generate shRNA molecules. These sequences are as follows:\nWhen tested for the ability to inhibit expression of RORγt, as well as expression of a target molecule for RORgt, significant inhibition of expression was observed. (See FIGS. 42 and 43).", "data": [{"sequence": "GGAACTGGCTTTCCATCATCA (expressed or natural sequence) [SEQ ID NO: 10]", "values": [{"measurement": "inhibition of RORγt expression", "result": "shown to inhibit the expression of RORγt"}]}, {"sequence": "GGAGCAGACACACTTACATAC (chemistry not given here) [SEQ ID NO: 9]", "values": [{"measurement": "inhibition of RORγt expression", "result": "shown to inhibit the expression of RORγt"}]}]}
